Results as given in ChEMBL document CHEMBL1133808, “The discovery of sulfonylated dipeptides as potent VLA-4 antagonists” (Bioorg Med Chem Lett, 2001).
Starred links: 1 amine or outer side, 2 acyl side, 3 side chain; linkers in the order of their positions; H or OH if unused. Non-standard residues stand in square brackets, D forms with d. Residues, ends and D or L forms follow the SMILES beside them. *: point of attachment. X1 = O=C(Cc1ccc(N[*:1])cc1)[*:2]; NH(2-Me-phenyl) = Cc1ccccc1N*; CO = O=C([*:1])[*:2]

Experiments:
Integrin alpha-4/beta-1 = Integrin alpha-4/beta-1 (Homo sapiens, UniProt P05556+P13612); assay: Antagonistic activity against VLA-4 integrin of human jurkat cells using [125I]VCAM-Ig as radioligand; type: functional, cell-based
Integrin alpha-4/beta-7 [1] = target: T1, Integrin alpha-4/beta-7 (Homo sapiens, UniProt P13612+P26010); assay: Inhibition of [125I]MAdCAM-Ig binding to alpha4-beta7 integrin of human RPMI-8866 cells; type: cell-based
T1 sequence (P13612 whole entry): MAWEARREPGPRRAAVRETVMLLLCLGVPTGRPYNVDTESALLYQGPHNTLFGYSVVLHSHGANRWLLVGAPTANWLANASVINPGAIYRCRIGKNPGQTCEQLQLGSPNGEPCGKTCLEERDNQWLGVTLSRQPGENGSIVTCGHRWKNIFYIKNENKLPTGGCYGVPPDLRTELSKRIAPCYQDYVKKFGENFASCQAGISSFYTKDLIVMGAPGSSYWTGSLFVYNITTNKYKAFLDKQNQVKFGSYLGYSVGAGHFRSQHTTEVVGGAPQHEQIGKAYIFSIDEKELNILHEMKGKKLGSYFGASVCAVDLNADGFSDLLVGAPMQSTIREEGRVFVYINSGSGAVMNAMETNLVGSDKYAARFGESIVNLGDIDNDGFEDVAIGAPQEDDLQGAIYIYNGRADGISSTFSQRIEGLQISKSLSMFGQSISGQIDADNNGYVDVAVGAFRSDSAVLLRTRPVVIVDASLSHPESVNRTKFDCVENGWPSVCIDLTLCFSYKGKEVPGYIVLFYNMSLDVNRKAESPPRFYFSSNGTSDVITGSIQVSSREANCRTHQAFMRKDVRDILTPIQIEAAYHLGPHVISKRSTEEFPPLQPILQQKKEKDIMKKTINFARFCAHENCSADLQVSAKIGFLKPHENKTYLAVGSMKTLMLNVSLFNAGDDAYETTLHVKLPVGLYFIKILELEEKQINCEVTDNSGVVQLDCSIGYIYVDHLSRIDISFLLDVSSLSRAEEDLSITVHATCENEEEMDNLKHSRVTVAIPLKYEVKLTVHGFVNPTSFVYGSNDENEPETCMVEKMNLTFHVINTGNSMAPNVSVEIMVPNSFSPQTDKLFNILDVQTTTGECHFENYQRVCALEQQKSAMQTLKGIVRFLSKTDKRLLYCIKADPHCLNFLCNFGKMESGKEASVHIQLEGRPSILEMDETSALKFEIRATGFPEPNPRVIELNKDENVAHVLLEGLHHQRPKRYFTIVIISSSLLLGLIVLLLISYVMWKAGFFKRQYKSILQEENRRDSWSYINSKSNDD
T1 sequence (P26010 whole entry): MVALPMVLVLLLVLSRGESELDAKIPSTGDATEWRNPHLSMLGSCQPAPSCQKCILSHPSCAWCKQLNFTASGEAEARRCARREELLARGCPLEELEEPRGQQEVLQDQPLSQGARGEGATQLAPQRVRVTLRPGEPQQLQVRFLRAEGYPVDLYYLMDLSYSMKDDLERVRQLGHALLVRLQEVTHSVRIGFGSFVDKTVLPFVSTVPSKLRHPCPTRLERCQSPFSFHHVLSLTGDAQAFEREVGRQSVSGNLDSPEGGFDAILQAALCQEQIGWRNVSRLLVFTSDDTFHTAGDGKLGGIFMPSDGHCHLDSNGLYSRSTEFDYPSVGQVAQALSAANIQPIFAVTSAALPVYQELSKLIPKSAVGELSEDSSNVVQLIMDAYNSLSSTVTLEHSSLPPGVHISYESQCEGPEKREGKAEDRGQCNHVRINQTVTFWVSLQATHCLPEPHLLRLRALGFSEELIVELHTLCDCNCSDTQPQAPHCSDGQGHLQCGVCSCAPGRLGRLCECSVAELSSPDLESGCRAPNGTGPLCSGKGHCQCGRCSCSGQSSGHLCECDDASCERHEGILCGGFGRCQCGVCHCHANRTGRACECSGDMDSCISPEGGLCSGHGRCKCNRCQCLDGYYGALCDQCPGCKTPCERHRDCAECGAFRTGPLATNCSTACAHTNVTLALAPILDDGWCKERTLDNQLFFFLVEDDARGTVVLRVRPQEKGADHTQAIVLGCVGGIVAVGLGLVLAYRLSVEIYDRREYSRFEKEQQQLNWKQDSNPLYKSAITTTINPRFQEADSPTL

Integrin alpha-4/beta-7 [2] = target: T1, Integrin alpha-4/beta-7; assay: Inhibition of [125I]VCAM-Ig binding to alpha4-beta7 integrin of human RPMI-8866 cells; type: cell-based
[3] = Plasma half-life in Sprague-Dawley rats; type: ADME, organism-based; settings: rat
[4] = Plasma clearance in Sprague-Dawley rats; type: ADME, organism-based; settings: rat, read-out: Clp

Integrin alpha-4/beta-1, sequence (P05556 whole entry, one chain of several): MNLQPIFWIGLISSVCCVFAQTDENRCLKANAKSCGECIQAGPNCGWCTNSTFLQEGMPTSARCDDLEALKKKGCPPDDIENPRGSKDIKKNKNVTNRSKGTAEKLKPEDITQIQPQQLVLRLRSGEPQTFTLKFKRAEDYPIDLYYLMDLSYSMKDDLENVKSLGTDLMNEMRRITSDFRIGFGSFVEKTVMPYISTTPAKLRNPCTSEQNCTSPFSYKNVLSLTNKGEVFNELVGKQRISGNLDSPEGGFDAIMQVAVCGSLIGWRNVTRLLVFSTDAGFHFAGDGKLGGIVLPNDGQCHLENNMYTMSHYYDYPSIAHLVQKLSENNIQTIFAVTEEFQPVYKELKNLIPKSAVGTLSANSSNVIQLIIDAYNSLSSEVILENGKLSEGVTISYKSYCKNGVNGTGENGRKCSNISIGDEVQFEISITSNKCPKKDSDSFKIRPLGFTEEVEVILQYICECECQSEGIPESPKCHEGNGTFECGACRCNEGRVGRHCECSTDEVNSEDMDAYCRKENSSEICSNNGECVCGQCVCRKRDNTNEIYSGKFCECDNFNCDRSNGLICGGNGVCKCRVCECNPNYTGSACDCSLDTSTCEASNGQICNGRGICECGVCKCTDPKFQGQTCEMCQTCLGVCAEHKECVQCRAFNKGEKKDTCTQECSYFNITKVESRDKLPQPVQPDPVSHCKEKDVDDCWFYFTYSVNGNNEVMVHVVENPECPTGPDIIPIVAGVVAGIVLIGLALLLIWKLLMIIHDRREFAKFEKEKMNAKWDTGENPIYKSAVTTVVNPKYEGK

Structure (SMILES)	IC50 (Integrin alpha-4/beta-1) [nM]	IC50 (Integrin alpha-4/beta-7 [2]) [nM]	other results
CS(=O)(=O)c1ccccc1-c1ccc(C[C@H](NC(=O)[C@@H]2CCCN2S(=O)(=O)c2cc(Cl)cc(Cl)c2)C(=O)O)cc1	0.1		
C[C@@]1(C(=O)N[C@@H](Cc2ccc(-c3nc[nH]n3)cc2)C(=O)O)CCCN1S(=O)(=O)c1cc(Cl)cc(Cl)c1	0.52		IC50 (Integrin alpha-4/beta-7 [1]): 949 nM
CCCC[C@H](NC(=O)[C@@H]1CCCN1S(=O)(=O)c1ccc(OC)c(OC)c1)C(=O)O	45		
C[C@@]1(C(=O)N[C@@H](Cc2ccc(-c3cccc4cc[nH]c34)cc2)C(=O)O)CCCN1S(=O)(=O)c1cc(Cl)cc(Cl)c1	1.33	5720	
C[C@@]1(C(=O)N[C@@H](Cc2ccc(-c3ccccc3Cl)cc2)C(=O)O)CCCN1S(=O)(=O)c1cc(Cl)cc(Cl)c1	192	2260	
Cc1ccccc1NC(=O)Nc1ccc(CC(=O)N[C@@H](CC(C)C)C(=O)N[C@@H](CC(=O)O)C(=O)N[C@H](C(=O)N2CCC[C@H]2C(=O)O)C(C)C)cc1 ({NH(2-Me-phenyl)-CO}-[X1]LDVP-OH)		433	IC50 (Integrin alpha-4/beta-7 [1]): 862 nM
COc1cccc(OC)c1-c1ccc(C[C@H](NC(=O)[C@@H]2CCCN2S(=O)(=O)c2cc(Cl)cc(Cl)c2)C(=O)O)cc1	0.09		
CN(C)C(=O)c1ccccc1-c1ccc(C[C@H](NC(=O)[C@@H]2CCCN2S(=O)(=O)c2cc(Cl)cc(Cl)c2)C(=O)O)cc1	0.13		
COc1cccc(OC)c1-c1ccc(C[C@H](NC(=O)[C@]2(C)CCN2S(=O)(=O)c2cc(Cl)cc(Cl)c2)C(=O)O)cc1	0.07		half-life [3]: 1.5 h; IC50 (Integrin alpha-4/beta-7 [1]): 14.2 nM; clearance [4]: > 100 mL/min/kg
COC(=O)c1cccc(-c2ccc(C[C@H](NC(=O)[C@@H]3CCCN3S(=O)(=O)c3cc(Cl)cc(Cl)c3)C(=O)O)cc2)c1	0.4		
CSc1ccccc1-c1ccc(C[C@H](NC(=O)[C@@H]2CCCN2S(=O)(=O)c2cc(Cl)cc(Cl)c2)C(=O)O)cc1	0.36		
C[C@@]1(C(=O)N[C@@H](Cc2ccc(-c3c(O)cccc3O)cc2)C(=O)O)CCCN1S(=O)(=O)c1cc(Cl)cc(Cl)c1	0.5		IC50 (Integrin alpha-4/beta-7 [1]): 670 nM
O=Cc1ccccc1-c1ccc(C[C@H](NC(=O)[C@@H]2CCCN2S(=O)(=O)c2cc(Cl)cc(Cl)c2)C(=O)O)cc1	0.22		
Cc1ccccc1-c1ccc(C[C@H](NC(=O)[C@@H]2CCCN2S(=O)(=O)c2cc(Cl)cc(Cl)c2)C(=O)O)cc1	1.43		
COc1ccc(S(=O)(=O)N2Cc3ccccc3C[C@H]2C(=O)N[C@@H](Cc2ccc3ccccc3c2)C(=O)O)cc1OC	7		
NC(=O)c1ccccc1-c1ccc(C[C@H](NC(=O)[C@@H]2CCCN2S(=O)(=O)c2cc(Cl)cc(Cl)c2)C(=O)O)cc1	0.09		
CCCC[C@H](NC(=O)[C@@H]1Cc2ccccc2CN1S(=O)(=O)c1cc(Cl)cc(Cl)c1)C(=O)O	10		
COc1cccc(OC)c1-c1ccc(C[C@H](NC(=O)[C@@H]2CCN2S(=O)(=O)c2cc(Cl)cc(Cl)c2)C(=O)O)cc1			IC50 (Integrin alpha-4/beta-7 [1]): 10.6 nM; clearance [4]: > 100 mL/min/kg
O=Cc1cccc(-c2ccc(C[C@H](NC(=O)[C@@H]3CCCN3S(=O)(=O)c3cc(Cl)cc(Cl)c3)C(=O)O)cc2)c1	0.23		
COc1cccc(C#N)c1-c1ccc(C[C@H](NC(=O)[C@]2(C)CCCN2S(=O)(=O)c2cc(Cl)cc(Cl)c2)C(=O)O)cc1	0.28		IC50 (Integrin alpha-4/beta-7 [1]): 77 nM
C[C@@]1(C(=O)N[C@@H](Cc2ccc(-c3cc(C#N)ccc3F)cc2)C(=O)O)CCCN1S(=O)(=O)c1cc(Cl)cc(Cl)c1	1.01	1240	
C[C@@]1(C(=O)N[C@@H](Cc2ccc(-c3cccnc3)cc2)C(=O)O)CCCN1S(=O)(=O)c1cc(Cl)cc(Cl)c1	0.35	311	

Structure (SMILES)	IC50 (Integrin alpha-4/beta-1) [nM]	IC50 (Integrin alpha-4/beta-7 [2]) [nM]	other results
CSc1ccccc1-c1ccc(C[C@H](NC(=O)[C@]2(C)CCCN2S(=O)(=O)c2cc(Cl)cc(Cl)c2)C(=O)O)cc1	0.65	78.2	
C[C@@]1(C(=O)N[C@@H](Cc2ccc(-c3cccc(C#N)c3)cc2)C(=O)O)CCCN1S(=O)(=O)c1cc(Cl)cc(Cl)c1	1.12	1140	
CN(C)C(=O)c1ccccc1-c1ccc(C[C@H](NC(=O)[C@]2(C)CCCN2S(=O)(=O)c2cc(Cl)cc(Cl)c2)C(=O)O)cc1	0.22	82.7	
COC(=O)c1ccccc1-c1ccc(C[C@H](NC(=O)[C@@H]2CCCN2S(=O)(=O)c2cc(Cl)cc(Cl)c2)C(=O)O)cc1	0.15		
C[C@@]1(C(=O)N[C@@H](Cc2ccc(-c3ccccc3C(N)=O)cc2)C(=O)O)CCCN1S(=O)(=O)c1cc(Cl)cc(Cl)c1	0.14	24.3	half-life [3]: 1.1 h
Cc1ccc(-c2ccc(C[C@H](NC(=O)[C@@H]3CCCN3S(=O)(=O)c3cc(Cl)cc(Cl)c3)C(=O)O)cc2)cc1	1.53		
COc1ccccc1-c1ccc(C[C@H](NC(=O)[C@]2(C)CCCN2S(=O)(=O)c2cc(Cl)cc(Cl)c2)C(=O)O)cc1	0.52	242	clearance [4]: 20 mL/min/kg
C[C@@]1(C(=O)N[C@@H](Cc2ccc(-c3ncccc3C#N)cc2)C(=O)O)CCCN1S(=O)(=O)c1cc(Cl)cc(Cl)c1	0.14		
O=Cc1ccc(-c2ccc(C[C@H](NC(=O)[C@@H]3CCCN3S(=O)(=O)c3cc(Cl)cc(Cl)c3)C(=O)O)cc2)cc1	0.38		
O=C(O)c1cccc(-c2ccc(C[C@H](NC(=O)[C@@H]3CCCN3S(=O)(=O)c3cc(Cl)cc(Cl)c3)C(=O)O)cc2)c1	0.54		
C[C@@]1(C(=O)N[C@@H](Cc2ccc(-c3nccs3)cc2)C(=O)O)CCCN1S(=O)(=O)c1cc(Cl)cc(Cl)c1	0.24	413	
O=C(O)[C@H](Cc1ccc(-c2ccccc2)cc1)NC(=O)[C@@H]1CCCN1S(=O)(=O)c1cc(Cl)cc(Cl)c1	0.63		
O=C(O)c1ccccc1-c1ccc(C[C@H](NC(=O)[C@@H]2CCCN2S(=O)(=O)c2cc(Cl)cc(Cl)c2)C(=O)O)cc1	0.95		
CC(C)C(=O)Oc1cccc(OC(=O)C(C)C)c1-c1ccc(C[C@H](NC(=O)[C@]2(C)CCCN2S(=O)(=O)c2cc(Cl)cc(Cl)c2)C(=O)O)cc1	4.5		IC50 (Integrin alpha-4/beta-7 [1]): 3550 nM
C[C@@]1(C(=O)N[C@@H](Cc2ccc(-c3ccccc3S(C)(=O)=O)cc2)C(=O)O)CCCN1S(=O)(=O)c1cc(Cl)cc(Cl)c1	0.16	13.2	
O=C(O)[C@H](Cc1ccc(-c2ccccc2F)cc1)NC(=O)[C@@H]1CCCN1S(=O)(=O)c1cc(Cl)cc(Cl)c1	1.02		
O=C(O)[C@H](Cc1ccc(-c2ccc(F)cc2)cc1)NC(=O)[C@@H]1CCCN1S(=O)(=O)c1cc(Cl)cc(Cl)c1	0.9		
CNC(=O)c1ccccc1-c1ccc(C[C@H](NC(=O)[C@@H]2CCCN2S(=O)(=O)c2cc(Cl)cc(Cl)c2)C(=O)O)cc1	0.1		
N#Cc1cccc(-c2ccc(C[C@H](NC(=O)[C@@H]3CCCN3S(=O)(=O)c3cc(Cl)cc(Cl)c3)C(=O)O)cc2)c1	0.39		
C[C@@]1(C(=O)N[C@@H](Cc2ccc(-c3ccccc3F)cc2)C(=O)O)CCCN1S(=O)(=O)c1cc(Cl)cc(Cl)c1	2.4	> 4000	
COc1ccc(S(=O)(=O)N2Cc3ccccc3C[C@H]2C(=O)N[C@@H](CCCNC(=N)N)C(=O)O)cc1OC	360		
